SMILES strings stand for the structures. Read-outs that look alike come from different tables or passages of the source.

Among the data in patent US20250215010A1, “DIAZABICYCLOOCTANE DERIVATIVES USEFUL AS MATRIX METALLOPROTEINASE INHIBITORS” (VASA THERAPEUTICS SPOLKA Z OGRANICZONA ODPOWIEDZIALNOSCIA, priority 2022, published 2025) are IC50 values, retold here.

Type in all cases: biochemical
One assay deals with T1, MMP1 (Homo sapiens, UniProt P03956).
T1 sequence (P03956 100-269 limits assumed): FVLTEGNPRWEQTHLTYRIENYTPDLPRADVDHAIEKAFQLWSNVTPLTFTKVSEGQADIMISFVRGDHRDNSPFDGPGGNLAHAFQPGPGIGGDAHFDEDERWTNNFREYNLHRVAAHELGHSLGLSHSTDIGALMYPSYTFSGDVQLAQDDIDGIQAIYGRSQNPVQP
As to the kind of experiment: MMP-1 colorimetric inhibition assay (Enzo kit BML-AK404). As for the experimental part:
(§1) The inhibitory activities of the compounds of the invention were assessed in 96-well microplate format using MMP1, MMP2, MMP9 and MMP13 colorimetric assay kits and TACE fluorometric assay kit from Enzo Life Sciences, Inc. The inhibitory effect of the compounds of the invention on ADAM10 activity were evaluated in 96-well microplate format using fluorometric assay from AnaSpec, Inc.
The MMP-1 Colorimetric Drug Discovery Kit (catalog #BML-AK404) is a complete assay system designed to screen inhibitors of matrix metalloproteinase-1 using a thiopeptide as a chromogenic substrate (Ac-PLG-[2-mercapto-4-methylpentanoyl]-LG-OC2H5). The MMP cleavage site peptide bond is replaced by a thioester bond in the thiopeptide. Hydrolysis of this bond by an MMP produces a sulfhydryl group, which reacts with DTNB [5,5′-dithiobis(2-nitrobenzoic acid), Ellman's reagent] to form 2-nitro-5-thiobenzoic acid, that can be detected spectrophotometrically.
(§2) The inhibitory activities of the compounds of the invention against MMP1, MMP2, MMP9 and MMP13 were tested according to the manufacturer's assay protocols and the absorbance at 415 nm was monitored using the Tecan Infinite® 200 Pro F Nano^+ microplate reader.
(§3) The normalized values were analyzed using GraphPadPrism 9 for Windows (GraphPad Software, San Diego, CA, USA) software by plotting inhibition curves and determining the IC50 values (in nM).

In a further assay the target is T2, MMP13 (Homo sapiens, UniProt P45452).
T2 construct: purchased Enzo Life Sciences, Inc. BML-AK412
Put plainly: MMP-13 colorimetric inhibition assay (Enzo kit BML-AK412). As to the method: as §1
The MMP-13 Colorimetric Drug Discovery Kit (catalog #BML-AK412) is a complete assay system designed to screen inhibitors of matrix metalloproteinase-13 using a thiopeptide as a chromogenic substrate (Ac-PLG-[2-mercapto-4-methylpentanoyl]-LG-OC2H5). The MMP cleavage site peptide bond is replaced by a thioester bond in the thiopeptide. Hydrolysis of this bond by an MMP produces a sulfhydryl group, which reacts with DTNB [5,5′-dithiobis(2-nitrobenzoic acid), Ellman's reagent] to form 2-nitro-5-thiobenzoic acid, that can be detected spectrophotometrically.
as §2, §3

The next assay addresses T3, MMP2 (Homo sapiens, UniProt P08253).
T3 sequence (P08253 110-660): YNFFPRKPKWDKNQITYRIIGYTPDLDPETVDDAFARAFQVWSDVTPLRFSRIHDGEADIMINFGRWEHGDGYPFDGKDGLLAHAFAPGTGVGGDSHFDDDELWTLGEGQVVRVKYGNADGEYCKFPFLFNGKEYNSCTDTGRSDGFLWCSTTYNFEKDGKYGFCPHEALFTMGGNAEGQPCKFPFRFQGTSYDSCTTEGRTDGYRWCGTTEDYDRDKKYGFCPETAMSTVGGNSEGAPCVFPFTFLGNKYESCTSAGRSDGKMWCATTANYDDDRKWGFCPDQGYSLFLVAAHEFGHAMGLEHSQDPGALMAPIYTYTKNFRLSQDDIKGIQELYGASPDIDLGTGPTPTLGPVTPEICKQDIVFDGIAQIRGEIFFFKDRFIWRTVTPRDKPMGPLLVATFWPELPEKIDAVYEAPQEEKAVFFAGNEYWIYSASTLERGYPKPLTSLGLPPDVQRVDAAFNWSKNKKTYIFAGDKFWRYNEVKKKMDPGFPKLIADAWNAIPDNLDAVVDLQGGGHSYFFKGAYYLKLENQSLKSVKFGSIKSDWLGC
As to the kind of experiment: MMP-2 colorimetric inhibition assay (Enzo kit BML-AK408). As for the experimental part:
as §1
The MMP-2 Colorimetric Drug Discovery Kit (catalog #BML-AK408) is a complete assay system designed to screen MMP-2 inhibitors using a thiopeptide as a chromogenic substrate (Ac-PLG-[2-mercapto-4-methylpentanoyl]-LG-OC2H5). The MMP cleavage site peptide bond is replaced by a thioester bond in the thiopeptide. Hydrolysis of this bond by an MMP produces a sulfhydryl group, which reacts with DTNB [5,5′-dithiobis(2-nitrobenzoic acid), Ellman's reagent] to form 2-nitro-5-thiobenzoic acid, that can be detected spectrophotometrically.
as §2, §3

In a further assay the target is MMP9 (Homo sapiens, UniProt P14780). Put plainly: MMP-9 colorimetric inhibition assay (Enzo kit BML-AK410). As for the experimental part: as §1
MMP9, sequence (P14780 94-707): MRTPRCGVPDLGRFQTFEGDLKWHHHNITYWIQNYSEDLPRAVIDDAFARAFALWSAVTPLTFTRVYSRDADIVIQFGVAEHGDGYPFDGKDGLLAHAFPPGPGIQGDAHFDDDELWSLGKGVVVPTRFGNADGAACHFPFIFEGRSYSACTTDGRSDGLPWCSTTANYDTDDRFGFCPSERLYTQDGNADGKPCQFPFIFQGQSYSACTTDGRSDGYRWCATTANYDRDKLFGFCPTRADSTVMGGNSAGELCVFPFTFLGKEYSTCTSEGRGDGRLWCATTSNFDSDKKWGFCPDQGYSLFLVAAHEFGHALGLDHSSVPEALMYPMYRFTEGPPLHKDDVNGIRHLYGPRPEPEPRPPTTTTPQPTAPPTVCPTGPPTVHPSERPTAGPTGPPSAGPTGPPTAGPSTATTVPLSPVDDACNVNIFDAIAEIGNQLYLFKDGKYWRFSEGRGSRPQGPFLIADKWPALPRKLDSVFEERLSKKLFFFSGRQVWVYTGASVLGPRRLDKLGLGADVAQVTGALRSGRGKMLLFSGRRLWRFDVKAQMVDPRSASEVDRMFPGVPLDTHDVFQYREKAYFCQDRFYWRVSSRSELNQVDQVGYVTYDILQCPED
The MMP-9 Colorimetric Drug Discovery Kit (catalog #BML-AK410) is a complete assay system designed to screen inhibitors of matrix metalloproteinase-9 using a thiopeptide as a chromogenic substrate (Ac-PLG-[2-mercapto-4-methylpentanoyl]-LG-OC2H5). The MMP cleavage site peptide bond is replaced by a thioester bond in the thiopeptide. Hydrolysis of this bond by an MMP produces a sulfhydryl group, which reacts with DTNB [5,5′-dithiobis(2-nitrobenzoic acid), Ellman's reagent] to form 2-nitro-5-thiobenzoic acid, that can be detected spectrophotometrically.
as §2, §3

A further assay has as its target ADAM17 (TACE) (Homo sapiens, UniProt P78536). As to the kind of experiment: TACE fluorometric inhibition assay (Enzo kit BML-AK310). As for the experimental part:
as §1
The TACE Fluorometric Drug Discovery Kit (catalog #BML-AK310) is a complete assay system designed to screen ADAM17 (TACE) inhibitors using a quenched fluorogenic peptide: Mca-PLAQAV-Dpa-RSSSR—NH2. Mca fluorescence is quenched by the Dpa group until cleavage by proteases separates the two moieties leading to an increase in Mca fluorescence.
The inhibitory activity of the compounds of the invention against TACE was tested according to the manufacturer's assay protocol and the fluorescence was monitored at excitation/emission wavelengths=320 nm/420 nm using Tecan Infinite® 200 Pro F Nano^+ microplate reader.
as §3

The mark [1] stands for this setting: thiopeptide substrate, absorbance 415 nm, read-out: MMP 1 IC50 class.
[2] abbreviates: thiopeptide substrate, absorbance 415 nm, read-out: MMP 13 IC50 class.
[3] abbreviates: thiopeptide substrate, absorbance 415 nm, read-out: MMP 2 IC50 class.
The mark [4] stands for this setting: thiopeptide substrate, absorbance 415 nm, read-out: MMP 9 IC50 class.
[5] abbreviates: quenched fluorogenic peptide, ex/em 320/420 nm, read-out: TACE IC50 class.

ADAM17 (TACE), sequence (P78536 215-477 limits assumed): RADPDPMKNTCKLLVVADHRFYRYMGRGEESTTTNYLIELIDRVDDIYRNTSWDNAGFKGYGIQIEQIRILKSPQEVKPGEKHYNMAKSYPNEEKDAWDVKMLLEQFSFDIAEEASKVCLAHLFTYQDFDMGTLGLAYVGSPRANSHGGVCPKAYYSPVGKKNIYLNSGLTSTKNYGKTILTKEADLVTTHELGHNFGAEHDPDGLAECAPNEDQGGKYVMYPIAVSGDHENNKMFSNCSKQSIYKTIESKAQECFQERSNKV

With `CC(C)Oc1ccc(Oc2ccc(S(=O)(=O)N3C[C@H]4CC[C@@H]([C@@H]3C(=O)NO)N4C(=O)N3CCOCC3)cn2)cc1` [Example 71, (1S,2R,5R)-N-hydroxy-3-((6-(4-isopropoxyphenoxy)-pyridin-3-yl)sulfonyl)-8-(morpholine-4-carbonyl)-3,8-diazabicyclo[3.2.1]-octane-2-carboxamide], the IC50 on MMP1 (setting [1]) was 1000 to 10000 nM; on MMP13 (setting [2]), below 50 nM; at MMP2 (setting [3]), below 50 nM; at MMP9 (setting [4]) it was 50 to 1000 nM; on ADAM17 (TACE) (setting [5]), above 10000 nM.
For `CCOC(=O)N1[C@@H]2CC[C@H]1[C@H](C(=O)NO)N(S(=O)(=O)N1CCC(Oc3ccnc(C(F)(F)F)c3)CC1)C2` [Example 50, ethyl (1S,2R,5R)-2-(hydroxy-carbamoyl)-3-((4-((2-(trifluoro-methyl)pyridin-4-yl)oxy)-piperidin-1-yl)-sulfonyl)-3,8-diazabicyclo-[3.2.1]octane-8-carboxylate], the IC50 was above 10000 nM at MMP1 (setting [1]); 50 to 1000 nM on MMP13 (setting [2]); 50 to 1000 nM at MMP2 (setting [3]); 50 to 1000 nM on MMP9 (setting [4]); 1000 to 10000 nM at ADAM17 (TACE) (setting [5]).
`COCCOC(=O)N1[C@@H]2CC[C@H]1[C@H](C(=O)NO)N(S(=O)(=O)c1ccc(Oc3ccc(F)cc3)cn1)C2` [Example 14, 2-methoxyethyl (1S,2R,5R)-3-((5-(4-fluorophenoxy)pyridin-2-yl)sulfonyl)-2-(hydroxycarbamoyl)-3,8-diazabicyclo[3.2.1]octane-8-carboxylate]: the IC50 on MMP1 (setting [1]) was 1000 to 10000 nM; at MMP13 (setting [2]) it was below 50 nM; at MMP2 (setting [3]), below 50 nM; on MMP9 (setting [4]), below 50 nM; at ADAM17 (TACE) (setting [5]), 1000 to 10000 nM.
As for `COCCOC(=O)N1[C@@H]2CC[C@H]1[C@H](C(=O)NO)N(S(=O)(=O)c1cc(F)c(Oc3cnn(C)c3)c(F)c1)C2` [Example 42, 2-methoxyethyl (1S,2R,5R)-3-((3,5-difluoro-4-((1-methyl-1H-pyrazol-4-yl)oxy)phenyl)sulfonyl)-2-(hydroxycarbamoyl)-3,8-diazabicyclo[3.2.1]octane-8-carboxylate], the IC50 on MMP1 (setting [1]) fell in the range of 1000 to 10000 nM; at MMP13 (setting [2]) it was 50 to 1000 nM; on MMP2 (setting [3]), 50 to 1000 nM; on MMP9 (setting [4]), 50 to 1000 nM; on ADAM17 (TACE) (setting [5]) it was 50 to 1000 nM.
With `COCCOC(=O)N1[C@@H]2CC[C@H]1[C@H](C(=O)NO)N(S(=O)(=O)c1ccc(Oc3cnc(OC)nc3)nc1)C2` [Example 27, 2-methoxyethyl (1S,2R,5R)-2-(hydroxycarbamoyl)-3-((6-((2-methoxy-pyrimidin-5-yl)oxy)-pyridin-3-yl)-sulfonyl)-3,8-diaza-bicyclo[3.2.1]octane-8-carboxylate], the IC50 on MMP1 (setting [1]) is above 10000 nM; on MMP13 (setting [2]), 50 to 1000 nM; at MMP2 (setting [3]), below 50 nM; on MMP9 (setting [4]) it was 50 to 1000 nM; at ADAM17 (TACE) (setting [5]) it was 1000 to 10000 nM.
`COCCOC(=O)N1[C@@H]2CC[C@H]1[C@H](C(=O)NO)N(S(=O)(=O)c1ccc(Oc3nc4cc(Cl)ccc4o3)c(F)c1)C2` [Example 81, 2-methoxyethyl (1S,2R,5R)-3-((4-((5-chlorobenzo[d]-oxazol-2-yl)oxy)-3-fluorophenyl)sulfonyl)-2-(hydroxy-carbamoyl)-3,8-diazabicyclo[3.2.1]-octane-8-carboxylate]: the IC50 at MMP1 (setting [1]) is above 10000 nM; at MMP13 (setting [2]), above 10000 nM; on MMP2 (setting [3]) it was above 10000 nM; on MMP9 (setting [4]), 1000 to 10000 nM; on ADAM17 (TACE) (setting [5]), 1000 to 10000 nM.
As to `COCCOC(=O)N1[C@@H]2CC[C@H]1[C@H](C(=O)NO)N(S(=O)(=O)c1ccc(Oc3ccc(OCF)cc3)nc1)C2` [Example 43, 2-methoxyethyl (1S,2R,5R)-3-((6-(4-(fluoromethoxy)phenoxy)pyridin-3-yl)sulfonyl)-2-(hydroxycarbamoyl)-3,8-diazabicyclo[3.2.1]octane-8-carboxylate], the IC50 at MMP1 (setting [1]) is 1000 to 10000 nM; on MMP13 (setting [2]), below 50 nM; on MMP2 (setting [3]), below 50 nM; on MMP9 (setting [4]) it was below 50 nM; at ADAM17 (TACE) (setting [5]), 1000 to 10000 nM.
Turning to `COCCOC(=O)N1[C@@H]2CC[C@H]1[C@H](C(=O)NO)N(S(=O)(=O)c1ccc(Oc3ccc(C)nc3)nc1)C2` [Example 16, 2-methoxyethyl (1S,2R,5R)-2-(hydroxycarbamoyl)-3-((6-((6-methylpyridin-3-yl)-oxy)pyridin-3-yl)-sulfonyl)-3,8-diaza-bicyclo[3.2.1]octane-8-carboxylate], the IC50 on MMP1 (setting [1]) is 1000 to 10000 nM; on MMP13 (setting [2]), 50 to 1000 nM; at MMP2 (setting [3]), below 50 nM; on MMP9 (setting [4]), 50 to 1000 nM; on ADAM17 (TACE) (setting [5]) it was 1000 to 10000 nM.
Take `COCCOC(=O)N1[C@@H]2CC[C@H]1[C@H](C(=O)NO)N(S(=O)(=O)N1CCC(Oc3ccc(F)cc3)C1)C2` (stereo partly drawn) [Example 47, 2-methoxyethyl (1S,2R,5R)-3-((3-(4-fluoro-phenoxy)-pyrrolidin-1-yl)-sulfonyl)-2-(hydroxy-carbamoyl)-3,8-diazabicyclo-[3.2.1]octane-8-carboxylate]: the IC50 is above 10000 nM against MMP1; 1000 to 10000 nM against MMP13; 1000 to 10000 nM at MMP2; 1000 to 10000 nM against MMP9; 50 to 1000 nM against ADAM17 (TACE).
Take `COCCOC(=O)N1[C@@H]2CC[C@H]1[C@H](C(=O)NO)N(S(=O)(=O)c1ccc(Oc3cnn(CC(C)C)c3)nc1)C2` [Example 38, 2-methoxyethyl (1S,2R,5R)-2-(hydroxycarbamoyl)-3-((6-((1-isobutyl-1H-pyrazol-4-yl)oxy)pyridin-3-yl)sulfonyl)-3,8-diazabicyclo-[3.2.1]octane-8-carboxylate]: the IC50 on MMP1 (setting [1]) fell in the range of 1000 to 10000 nM; on MMP13 (setting [2]), 50 to 1000 nM; on MMP2 (setting [3]) it was 50 to 1000 nM; at MMP9 (setting [4]) it was 50 to 1000 nM; on ADAM17 (TACE) (setting [5]), 50 to 1000 nM.
